# Assay results: patent publication US20230358737A1, “CONTINUOUSLY CHEMICALLY ENHANCED APTAMER SENSORS” (University of Cincinnati, priority 2020, published 2023)
# Experiments:
# [1] = cited from earlier work
# [2] = cited from earlier work; for Viscosity at 25° C.: Table 3
# [3] = cited from earlier work; for LogK (octanol over water): Table 3, ratio of concentration of the oil in octanol and water at equilibrium
# [4] = cited from earlier work; remark: listed apart in the source
# [5] = equivalent diffusion distance through oil-membrane compared to water (calculation); assay type: physicochemical
# Text: For this reason, the present inventors chose to use 11 μm thick polycarbonate track-etch membranes instead of thicker hydrophobic membranes such as conventional porous Teflon films (z=10s to 100s of μm). The oil wicks into and remains in the track-etch membrane pores because of its lower interfacial surface tension with the polycarbonate than the water has with polycarbonate. […] The diffusion coefficient of an analyte is dependent on the viscosity of the fluid it is diffusing through. Therefore, an important design element for the oil is to have a low viscosity (diffusion coefficient is inversely proportional to the viscosity of the oil [Walter, A.; Gutknecht, J. Permeability of Small Nonelectrolytes through Lipid Bilayer Membranes. J. Membr. Biol. 1986, 90 (3), 207-217. https://doi.org/10.1007/BF01870127]. Consider an informative example related to the materials used here. The optimal track-etch membranes for this work (see Table 1-below) have an 11 μm membrane thickness and 15.7% porosity, which is equivalent to the analyte having to diffuse through a uniform 70 μm of oil (11 μm/0.157). Now consider castor oil, with a viscosity about 730 times greater than that of water (see Table 2-below). An 11 μm thick castor oil membrane would then be equivalent to a 51,170 μm thick water diffusion distance (11 μum/0.157*730). Alternatively, using a low viscosity oil, such as 1-decanol, the 11 μm thick oil-membrane would have an equivalent thickness of only 945 μm diffusion distance through water (see Table 2).
"Equivalent water thickness ([5]; pore size 0.1 μm, open area 3.1%, thickness 6 μm)","Equivalent water thickness ([5]; pore size 0.2 μm, open area 9.4%, thickness 10 μm)","Equivalent water thickness ([5]; pore size 0.4 μm, open area 12.6%, thickness 10 μm)","Equivalent water thickness ([5]; pore size 1.0 μm, open area 15.7%, thickness 11 μm) [μm]","Equivalent water thickness ([5]; pore size 3.0 μm, open area 14.1%, thickness 9 μm) [μm]",SMILES,Vapor pressure at 25° C. [1] [mmHg],Viscosity at 25° C. [2] [cP],LogK (octanol over water) [3],Solubility in water [4] [µg/mL],Viscosity ([2]; Table 2) [cP],Log P ([3]; Table 2)
,,,,,CCCCCCCCOCCCCCCCC [Dioctyl ether],0.005,0.224,6.9,,,
,,,,,CCCCCCCC/C=C\CCCCCCCC(=O)O [Oleic acid],0.0000005,27.64,7.64,0.01,,
,,,,,CC1=C(C/C=C(\C)CCC[C@H](C)CCC[C@H](C)CCCC(C)C)C(=O)c2ccccc2C1=O [Vitamin K1],,,10.9,,,
,,,,,CCCCCCCCCCCCCC [Tetradecane],0.0369,2.13,8.19,0.00033,,
,,,,,CCCCCCCCCCCCS [Dodecane thiol],0.000015,,6.1,<0.2,,
"26,10 μm","1,434 μm","1,070 μm",945,861,CCCCCCCCCCO [1-Decanol],0.00851,12,4.57,,12,5
